Reference: patent US20230157996A1, “SMALL-MOLECULE INHIBITOR TARGETING EB VIRUS NUCLEAR ANTIGEN PROTEIN, PREPARATION METHOD AND USE THEREOF” (priority 2020, published 2023)

What follows are molecules tested on C666-1 cells (assay: C666-1 cell viability single concentration (50 μM) inhibition rate (Resazurin)). Conditions: Homo sapiens, C6661, 72 h, 50 μM compound, 72 hours, C666-1 cells; read-out: C666-1 cell viability single concentration (50 μM) inhibition rate, Ratio* (Inh %).
Format: cell-based
How it was run: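 EBV-positive C666-1 cells (5×10^3/well), pre-cultured 24 h, were exposed to compound at 50 μmol/L final for 72 h at 37° C, 5% CO2, in duplicate. Viability by resazurin (3 h, ex 560/em 590 nm); inhibition rate computed relative to DMSO control and medium-only blank.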

Compound | inhibition at 50 µM [%]
COC(=O)c1cccc(C#CN(Cc2ccc(C(F)(F)F)cc2)S(=O)(=O)c2ccc(C)cc2)c1-n1cccc1 [Example 346] | 10 to 30
COC(=O)c1cccc(N2CC(Sc3ccc(C(C)C)cc3)C2)c1-n1cccc1 [Example 348, Methyl 3-(3-((4-isopropylphenyl)thio)azetidin-1-yl)-2-(1H-pyrrol-1-yl)benzoate] | < 10
COC(=O)c1cccc(N2CC(Sc3ccc(Cl)cc3)C2)c1-n1cccc1 [Example 349, Methyl 3-(3-((4-chlorophenyl)thio)azetidin-1-yl)-2-(1H-pyrrol-1-yl)benzoate] | < 10
COC(=O)c1cccc(N2CC(SC3CCCCC3)C2)c1-n1cccc1 [Example 350, Methyl 3-(3-(cyclohexylthio)azetidin-1-yl)-2-(1H-pyrrol-1-yl)benzoate] | < 10
COC(=O)c1cccc(N2CC(Sc3ccccc3)C2)c1-n1cccc1 [Example 351, Methyl 3-(3-(phenylthio)azetidin-1-yl)-2-(1H-pyrrol-1-yl)benzoate] | < 10
COC(=O)c1cccc(N2CC(Sc3ccc(CO)cc3)C2)c1-n1cccc1 [Example 352, Methyl 3-(3-((4-(hydroxymethyl)phenyl)thio)azetidin-1-yl)-2-(1H-pyrrol-1-yl)benzoate] | > 50
COC(=O)c1cccc(N2CC(S(=O)(=O)c3ccc(C(C)C)cc3)C2)c1-n1cccc1 [Example 353, Methyl 3-(3-((4-isopropylphenyl)sulfonyl)azetidin-1-yl)-2-(1H-pyrrol-1-yl)benzoate] | 10 to 30
COC(=O)c1cccc(N2CC(S(=O)(=O)c3ccc(Cl)cc3)C2)c1-n1cccc1 [Example 354, Methyl 3-(3-((4-chlorophenyl)sulfonyl)azetidin-1-yl)-2-(1H-pyrrol-1-yl)benzoate] | 10 to 30
COC(=O)c1cccc(N2CC(S(=O)(=O)C3CCCCC3)C2)c1-n1cccc1 [Example 355, Methyl 3-(3-(cyclohexylsulfonyl)azetidin-1-yl)-2-(1H-pyrrol-1-yl)benzoate] | 10 to 30
COC(=O)c1cccc(N2CC(S(=O)(=O)c3ccccc3)C2)c1-n1cccc1 [Example 356, Methyl 3-(3-(phenylsulfonyl)azetidin-1-yl)-2-(1H-pyrrol-1-yl)benzoate] | < 10
COC(=O)c1cccc(N2CC(S(=O)(=O)c3ccc(CO)cc3)C2)c1-n1cccc1 [Example 357, Methyl 3-(3-((4-(hydroxymethyl)phenyl)sulfonyl)azetidin-1-yl)-2-(1H-pyrrol-1-yl)benzoate] | < 10
COC(=O)c1cccc(N2CC(Oc3ccc(COc4cncc(F)c4)cc3)C2)c1-n1cccc1 [Example 358, Methyl 3-(3-(4-(((5-fluoropyridin-3-yl)oxy)methyl)phenoxy)azetidin-1-yl)-2-(1H-pyrrol-1-yl)benzoate] | 10 to 30
O=C(O)c1cccc(N2CC(Oc3ccc(COc4cncc(F)c4)cc3)C2)c1-n1cccc1 [Example 359, 3-(3-(4-(((5-fluoropyridin-3-yl)oxy)methyl)phenoxy)azetidin-1-yl)-2-(1H-pyrrol-1-yl)benzoic acid] | < 10
COC(=O)c1cccc(N2CC(Oc3ccc(COc4cncnc4)cc3)C2)c1-n1cccc1 [Example 360, Methyl 3-(3-(4-((pyrimidin-5-yl-oxy)methyl)phenoxy)azetidin-1-yl)-2-(1H-pyrrol-1-yl)benzoate] | < 10
O=C(O)c1cccc(N2CC(Oc3ccc(COc4cncnc4)cc3)C2)c1-n1cccc1 [Example 361, 3-(3-(4-((pyrimidin-5-yl-oxy)methyl)phenoxy)azetidin-1-yl)-2-(1H-pyrrol-1-yl)benzoic acid] | < 10
COC(=O)c1cccc(N2CC(Oc3ccc(CNc4ccccc4)cc3)C2)c1-n1cccc1 [Example 362] | < 10
O=C(O)c1cccc(N2CC(Oc3ccc(CNc4ccccc4)cc3)C2)c1-n1cccc1 [Example 363] | < 10
COC(=O)c1cccc(N2CC(Oc3ccc(CNCc4ccccc4)cc3)C2)c1-n1cccc1 [Example 364] | < 10
O=C(O)c1cccc(N2CC(Oc3ccc(CNCc4ccccc4)cc3)C2)c1-n1cccc1 [Example 365] | < 10
COCCOCc1ccc(OC2CN(c3cccc(C(=O)OC)c3-n3cccc3)C2)cc1OCCOC [Example 366, Methyl 3-(3-(3-(2-methoxyethoxy)-4-((2-methoxyethoxy)methyl)phenoxy)azetidin-1-yl)-2-(1H-pyrrol-1-yl)benzoate] | 10 to 30
COCCOCc1ccc(OC2CN(c3cccc(C(=O)O)c3-n3cccc3)C2)cc1OCCOC [Example 367, 3-(3-(3-(2-methoxyethoxy)-4-((2-methoxyethoxy)methyl)phenoxy)azetidin-1-yl)-2-(1H-pyrrol-1-yl)benzoic acid] | < 10
N#CCCNC(=O)c1cccc(N2CC(Oc3ccc(CO)cc3)C2)c1-n1cccc1 [Example 368, N-(2-cyanoethyl)-3-(3-(4-(hydroxymethyl)phenoxy)azetidin-1-yl)-2-(1H-pyrrol-1-yl)benzamide] | 10 to 30

Compound | inhibition at 50 µM [%]
CS(=O)(=O)NC(=O)c1cccc(N2CC(Oc3ccc(CO)cc3)C2)c1-n1cccc1 [Example 369, N-methylsulfonyl-(3-(3-(4-(hydroxymethyl)phenoxy)azetidin-1-yl)-2-(1H-pyrrol-1-yl))benzamide] | < 10
COCCOCc1ccc(OC2CN(c3cccc(C(=O)OC)c3-n3cccc3)C2)cc1 [Example 370] | 10 to 30
COCCOCc1ccc(OC2CN(c3cccc(C(=O)O)c3-n3cccc3)C2)cc1 [Example 371] | 10 to 30
COC(=O)c1cccc(N2CC(Oc3ccc(COCCO)cc3)C2)c1-n1cccc1 [Example 372] | 10 to 30
O=C(O)c1cccc(N2CC(Oc3ccc(COCCO)cc3)C2)c1-n1cccc1 [Example 373] | < 10
COC(=O)c1cccc(N2CC(Oc3ccc(COCCNC(C)=O)cc3)C2)c1-n1cccc1 [Example 374] | 10 to 30
COC(=O)c1cccc(N2CC(Oc3ccc(COC4CCOC4)cc3)C2)c1-n1cccc1 (stereo not drawn) [Example 375] | < 10
O=C(O)c1cccc(N2CC(Oc3ccc(COC4CCOC4)cc3)C2)c1-n1cccc1 (stereo not drawn) [Example 376] | 10 to 30
COC(=O)c1cccc(N2CC(Oc3ccc(COC4COC4)cc3)C2)c1-n1cccc1 [Example 377, Methyl 3-(3-(4-((oxetanyl-3-oxy)methyl)phenoxy)azetidin-1-yl)-2-(1H-pyrrol-1-yl)benzoate] | > 50
COC(=O)c1cccc(N2CC(Oc3ccc(COC4CCN(C(C)=O)CC4)cc3)C2)c1-n1cccc1 [Example 378] | < 10
O=C(O)c1cccc(C#CN2Cc3ccccc3S2(=O)=O)c1-n1cccc1 [Example 379] | > 50
Cc1ccc(S(=O)(=O)N(C#Cc2cccc(C(=O)O)c2-n2cccc2)Cc2ccccc2)cc1 [Example 380, 3-(((N-benzyl-4-methylphenyl)sulfonamido)ethynyl)-2-(1H-pyrrol-1-yl)benzoic acid] | < 10
Cc1ccc(S(=O)(=O)N(C)C#Cc2cccc(C(=O)O)c2-n2cccc2)cc1 [Example 384] | < 10
COC(=O)c1cccc(C#CN(Cc2ccc(OC)cc2)S(=O)(=O)c2ccc(C)cc2)c1-n1cccc1 [Example 385] | 10 to 30
COC(=O)c1cccc(C#CN(Cc2cccnc2)S(=O)(=O)c2ccc(C)cc2)c1-n1cccc1 [Example 387] | > 50
O=C(NCc1ccco1)c1cccc(N2CC(Oc3ccc(CO)cc3)C2)c1-n1cccc1 [Example 388, N-(furan-2-yl-methyl)-3-(3-(4-(hydroxymethyl)phenoxy)azetidin 1-yl)-2-(1H-pyrrol-1-yl)benzamide] | < 10
COC(=O)c1cccc(C#CN(Cc2ccncc2)S(=O)(=O)c2ccc(C)cc2)c1-n1cccc1 [Example 389] | > 50
COC(=O)c1cccc(C2CC2c2ccccc2)c1N (stereo not drawn) [Example 391, Methyl 2-amino-3-(2-phenylcyclopropyl)benzoate] | < 10
Nc1c(C(=O)O)cccc1C1CC1c1ccccc1 (stereo not drawn) [Example 392, 2-amino-3-(2-phenylcyclopropyl)benzoic acid] | < 10
O=C(O)c1cccc(C2CC2c2ccccc2)c1-n1cccc1 (stereo not drawn) [Example 393, 3-(2-phenylcyclopropyl)-2-(1H-pyrrol-1-yl)benzoic acid] | < 10
O=C(O)c1cccc(N2CC(Oc3ccc(COC4CCOCC4)cc3)C2)c1-n1cccc1 [Example 394, 2-(1H-pyrrol-1-yl)-3-(3-(4-(((tetrahydro-2H-pyran-4-yl)oxy)methyl)phenoxy)azetidin-1-yl)benzoic acid] | < 10
COC(=O)c1cccc(N2CC(Oc3ccc(CO)cc3)C2)c1-c1cc2ccccc2s1 [Example 395, Methyl 2-(benzo[b]thiophen-2-yl)-3-(3-(4-(hydroxymethyl)phenoxy)azetidin-1-yl)benzoate] | 10 to 30

Same assay, conditions: Homo sapiens, C6661, 72 h, read-out: C666-1 cell viability single concentration (50 μM) inhibition rate, Ratio* (Inh %)

Compound | inhibition at 50 µM [%]
Cc1ccc(S(=O)(=O)N(C#Cc2cccc(C(=O)O)c2-n2cccc2)Cc2ccc(C(F)(F)F)cc2)cc1 [Example 347] | 30 to 50
CS(=O)(=O)N(C#Cc1cccc(C(=O)O)c1-n1cccc1)Cc1ccccc1 [Example 382, Lithium 3-((N-benzylmethylsulfonamido)ethynyl)-2-(1H-pyrrol-1-yl)benzoate] | < 10
COc1ccc(CN(C#Cc2cccc(C(=O)O)c2-n2cccc2)S(=O)(=O)c2ccc(C)cc2)cc1 [Example 386] | < 10
Cc1ccc(S(=O)(=O)N(C#Cc2cccc(C(=O)O)c2-n2cccc2)Cc2ccncc2)cc1 [Example 390] | 10 to 30
